One assay deals with Plasmopara viticola. The assay can be described thus: Test D: grape downy mildew, spray after inoculation of grape seedlings. In kind it is in vivo. The conditions noted are these: 100 = 100% disease control. The source says: Upon removal, disease ratings were made. […] A dash (-) indicates no test results.
A further assay has as its system Phytophthora infestans. The assay can be described thus: whole plant or invertebrate. In kind it is in vivo. The conditions noted are these: 100 = 100% disease control.
In the next assay the test system is Septoria tritici. The assay can be described thus: Test J: wheat leaf blotch, preventive spray on wheat seedlings. Format: in vivo. The conditions noted are these: 40 ppm (marked *); 100 = 100% disease control, 0 = no control. From the text:
A dash (-) indicates no test results.

A further assay deals with fusarium graminearium. The assay can be described thus: Test I: wheat head scab, preventive spray on wheat seedlings. The following applies: 100 = 100% disease control.
The subject of assay [1] is Puccinia recondita f. sp. tritici. The assay can be described thus: Test K: wheat leaf rust, preventive spray on wheat seedlings. The conditions noted are these: 40 ppm (marked *); 100 = 100% disease control, 0 = no control.
Another assay deals with Botrytis cinerea. The assay can be described thus: Test E: tomato botrytis, preventive spray on tomato seedlings. The following applies: 40 ppm (marked *); 100 = 100% disease control, 0 = no control.
The subject of another assay is Septoria nodorum. The assay can be described thus: Test H: wheat glum blotch, preventive spray on wheat seedlings. The following applies: 40 ppm (marked *); 100 = 100% disease control, 0 = no control.
Assay [2] concerns Erysiphe graminis f. sp. tritici. The assay can be described thus: Test L: wheat powdery mildew, preventive spray on wheat seedlings. The conditions noted are these: 40 ppm (marked *); 100 = 100% disease control, 0 = no control.
Another assay concerns Pythium aphanidermatum. The assay can be described thus: Test A: bluegrass pythium blight, preventive spray on bluegrass seedlings. The conditions noted are these: 100 = 100% disease control, 0 = no control.
A further assay concerns Rhizoctonia oryzae. The assay can be described thus: Test G: turf brown patch, preventive spray on creeping bent grass seedlings. The conditions noted are these: 100 = 100% disease control.
The test system of assay [3] is Colletotrichum orbiculare. The assay can be described thus: Test B: cucumber Colletotrichum anthracnose, preventive spray on cucumber seedlings. The following applies: 40 ppm (marked *); 100 = 100% disease control, 0 = no control.
[4] abbreviates: 40 ppm (marked *), 0 = no control.
[5] abbreviates: 200 ppm, 0 = no control relative to controls.

Marks after values point to notes of the source that are not given here.

Procedure for Rhizoctonia oryzae: (the causal agent of turf brown patch) and incubated in a saturated atmosphere at 27° C. for 24 h, and then moved to a growth chamber at 27° C. for 5 days, after which disease ratings were made.
Procedure for Septoria nodorum: (the causal agent of wheat glum blotch) and incubated in a saturated atmosphere at 20° C. for 48 h, and then moved to a growth chamber at 22° C. for 5 days, after which disease ratings were made.
Procedure for fusarium graminearium: (the causal agent of wheat head scab) and incubated in a saturated atmosphere at 20° C. for 72 h, and then moved to a growth chamber at 22° C. for 5 days, after which disease ratings were made.

Turning to `CC(C)Cn1c(-c2c(F)cccc2F)c(Cl)nc(-c2cnccn2)c1=O.Cl` [compound 364], the “Test D disease control rating” value in the assay with Plasmopara viticola (200 ppm, 0 = no control) came out at 0%. Moreover, the “Test F disease control rating” value in the assay on Phytophthora infestans (200 ppm, 0 = no control) amounted to 0%. Further, the “Test J disease control rating” value in the assay with Septoria tritici is 0* %. Moreover, the “Test I disease control rating” value with fusarium graminearium (200 ppm, 0 = no control) worked out at 82%. In addition, the “Test K disease control rating” value in assay [1] was 92* %. In addition, the “Test E disease control rating” value with Botrytis cinerea is given as 99* %. The “Test H disease control rating” value in the assay on Septoria nodorum was 0* %. In assay [2], the “Test L disease control rating” value is listed as 88* %. For the same molecule, the “Test A disease control rating” value with Pythium aphanidermatum (200 ppm) is given as 0%. Further, in the assay on Rhizoctonia oryzae (setting [4]), the “Test G disease control rating” value is given as 16* %. In addition, the “Test B disease control rating” value in assay [3] is given as 0* %.
Take `O=c1c(-n2cccn2)nc(Cl)c(-c2c(F)cc(F)cc2F)n1-c1cccc(Cl)c1` [compound 373]: the “Test D disease control rating” value in the assay on Plasmopara viticola (setting [4]) is on record as 0* %. Further, in the assay with Phytophthora infestans (setting [4]), the “Test F disease control rating” value is given as 0* %. Moreover, the “Test J disease control rating” value in the assay with Septoria tritici is given as 96* %. Moreover, the “Test I disease control rating” value in the assay on fusarium graminearium (setting [4]) was 78* %. Further, the “Test K disease control rating” value in assay [1] is 100* %. Moreover, in the assay on Botrytis cinerea, the “Test E disease control rating” value is reported as 100* %. In addition, the “Test H disease control rating” value with Septoria nodorum is 99* %. For the same molecule, the “Test L disease control rating” value in assay [2] is given as 100* %. In addition, in the assay on Pythium aphanidermatum (40 ppm (marked *)), the “Test A disease control rating” value is recorded as 0* %. Also, the “Test G disease control rating” value in the assay on Rhizoctonia oryzae (setting [4]) was 93* %. For the same molecule, the “Test B disease control rating” value in assay [3] is 99* %.
Regarding `Cc1ccn(-c2nc(Cl)c(-c3c(F)cc(F)cc3F)n(-c3cccc(Cl)c3)c2=O)n1` [compound 374], in the assay with Plasmopara viticola (setting [4]), the “Test D disease control rating” value is 0* %. Further, the “Test F disease control rating” value in the assay on Phytophthora infestans (setting [4]) was 0* %. Further, in the assay with Septoria tritici, the “Test J disease control rating” value is recorded as 100* %. Besides, in the assay on fusarium graminearium (setting [4]), the “Test I disease control rating” value is on record as 0* %. Besides, the “Test K disease control rating” value in [1] is listed as 100* %. Also, the “Test E disease control rating” value in the assay on Botrytis cinerea is 99* %. The “Test H disease control rating” value in the assay with Septoria nodorum is listed as 100* %. In assay [2], the “Test L disease control rating” value is 100* %. In addition, the “Test A disease control rating” value in the assay on Pythium aphanidermatum (40 ppm (marked *)) was 0* %. For the same molecule, the “Test G disease control rating” value in the assay on Rhizoctonia oryzae (setting [4]) is listed as 78* %. In addition, the “Test B disease control rating” value in assay [3] is given as 100* %.
Regarding `O=c1c(-n2cccn2)nc(Cl)c(-c2c(F)cc(F)cc2F)n1-c1ccccc1Cl` [compound 375], in the assay on Plasmopara viticola (setting [4]), the “Test D disease control rating” value was 0* %. Besides, the “Test F disease control rating” value with Phytophthora infestans (setting [4]) was 0* %. Moreover, in the assay with Septoria tritici, the “Test J disease control rating” value is 100* %. In addition, the “Test I disease control rating” value in the assay on fusarium graminearium (setting [4]) was 80* %. For the same molecule, in [1], the “Test K disease control rating” value is given as 100* %. Besides, the “Test E disease control rating” value with Botrytis cinerea is given as 99* %. In the assay on Septoria nodorum, the “Test H disease control rating” value is 100* %. Further, in assay [2], the “Test L disease control rating” value is reported as 100* %. Moreover, the “Test A disease control rating” value with Pythium aphanidermatum (40 ppm (marked *)) was 0* %. The “Test G disease control rating” value in the assay on Rhizoctonia oryzae (setting [4]) is 95* %. In addition, the “Test B disease control rating” value in assay [3] is recorded as 100* %.
Consider `Cc1ccn(-c2nc(Cl)c(-c3c(F)cc(F)cc3F)n(-c3ccccc3Cl)c2=O)n1` [compound 376], for which, in the assay on Plasmopara viticola (setting [5]), the “Test D disease control rating” value was 40%. In the assay on Phytophthora infestans (setting [4]), the “Test F disease control rating” value was 0* %. In addition, the “Test J disease control rating” value in the assay on Septoria tritici is 100* %. Moreover, in the assay on fusarium graminearium (setting [4]), the “Test I disease control rating” value is given as 0* %. Further, the “Test K disease control rating” value in assay [1] is reported as 100* %. In the assay on Botrytis cinerea, the “Test E disease control rating” value is 99* %. Besides, in the assay with Septoria nodorum, the “Test H disease control rating” value is on record as 100* %. In addition, in assay [2], the “Test L disease control rating” value is reported as 100* %. In addition, the “Test A disease control rating” value in the assay with Pythium aphanidermatum (40 ppm (marked *)) is 0* %. Also, the “Test G disease control rating” value in the assay with Rhizoctonia oryzae (setting [4]) is 98* %. The “Test B disease control rating” value in assay [3] was 100* %.
In the case of `O=c1c(-n2cccn2)nc(Cl)c(-c2c(F)cc(F)cc2F)n1Cc1ccc(Br)cc1` [compound 377], the “Test D disease control rating” value with Plasmopara viticola (setting [4]) is given as 0* %. Besides, the “Test F disease control rating” value in the assay on Phytophthora infestans (setting [5]) was found to be 0%. In the assay with Septoria tritici, the “Test J disease control rating” value is 100* %. Besides, the “Test I disease control rating” value with fusarium graminearium (setting [5]) was 0%. For the same molecule, the “Test K disease control rating” value in assay [1] is 98* %. Besides, the “Test E disease control rating” value with Botrytis cinerea is reported as 99* %. The “Test H disease control rating” value in the assay with Septoria nodorum is 0* %. For the same molecule, the “Test L disease control rating” value in [2] is 94* %. Also, the “Test A disease control rating” value in the assay with Pythium aphanidermatum (40 ppm (marked *)) is 0* %. In the assay on Rhizoctonia oryzae (setting [4]), the “Test G disease control rating” value is reported as 0* %. In assay [3], the “Test B disease control rating” value is 31* %.
Regarding `Cc1cccc(-n2c(-c3c(F)cccc3F)c(Cl)nc(-n3cccn3)c2=O)c1C` [compound 378], the “Test D disease control rating” value with Plasmopara viticola (setting [4]) was 0* %. The “Test F disease control rating” value in the assay on Phytophthora infestans (setting [4]) is reported as 0* %. Besides, in the assay with Septoria tritici, the “Test J disease control rating” value is on record as 100* %. For the same molecule, the “Test I disease control rating” value in the assay with fusarium graminearium (setting [4]) was 0* %. Also, the “Test K disease control rating” value in assay [1] is given as 98* %. Further, the “Test E disease control rating” value with Botrytis cinerea is reported as 98* %. In addition, the “Test H disease control rating” value in the assay on Septoria nodorum is given as 98* %. Moreover, the “Test L disease control rating” value in [2] is reported as 91* %. Also, in the assay on Pythium aphanidermatum (40 ppm (marked *)), the “Test A disease control rating” value was 0* %. For the same molecule, in the assay on Rhizoctonia oryzae (setting [4]), the “Test G disease control rating” value is on record as 51* %. In addition, the “Test B disease control rating” value in [3] is 0* %.
For the molecule `Cc1ccn(-c2nc(Cl)c(-c3c(F)cccc3F)n(-c3cccc(C)c3C)c2=O)n1` [compound 379], the “Test D disease control rating” value with Plasmopara viticola (setting [4]) is listed as 0* %. Further, the “Test F disease control rating” value in the assay with Phytophthora infestans (setting [4]) was 0* %. Moreover, the “Test J disease control rating” value in the assay with Septoria tritici is given as 100* %. Besides, the “Test I disease control rating” value with fusarium graminearium (setting [4]) is 0* %. Besides, the “Test K disease control rating” value in assay [1] is on record as 95* %. Further, in the assay on Botrytis cinerea, the “Test E disease control rating” value was 98* %. In addition, the “Test H disease control rating” value with Septoria nodorum is listed as 90* %. The “Test L disease control rating” value in [2] is reported as 40* %. Moreover, in the assay on Pythium aphanidermatum (40 ppm (marked *)), the “Test A disease control rating” value is 0* %. Further, the “Test G disease control rating” value with Rhizoctonia oryzae (setting [4]) is given as 0* %. The “Test B disease control rating” value in assay [3] is reported as 0* %.
Consider `O=c1c(-n2cccn2)nc(Cl)c(-c2c(F)cccc2F)n1-c1cccc(F)c1F` [compound 380], for which the “Test D disease control rating” value in the assay with Plasmopara viticola (setting [4]) is reported as 0* %. In the assay with Phytophthora infestans (setting [4]), the “Test F disease control rating” value was 0* %. Moreover, the “Test J disease control rating” value in the assay on Septoria tritici is 99* %. Also, in the assay with fusarium graminearium (setting [4]), the “Test I disease control rating” value is given as 60* %. The “Test K disease control rating” value in assay [1] was 100* %. For the same molecule, the “Test E disease control rating” value with Botrytis cinerea is reported as 99* %. For the same molecule, the “Test H disease control rating” value in the assay on Septoria nodorum is 99* %. The “Test L disease control rating” value in assay [2] is on record as 99* %. Also, in the assay with Pythium aphanidermatum (40 ppm (marked *)), the “Test A disease control rating” value is on record as 0* %. The “Test G disease control rating” value in the assay on Rhizoctonia oryzae (setting [5]) is 60%. Moreover, the “Test B disease control rating” value in [3] is on record as 96* %.
Regarding `Cc1ccn(-c2nc(Cl)c(-c3c(F)cccc3F)n(-c3cccc(F)c3F)c2=O)n1` [compound 381], the “Test D disease control rating” value in the assay with Plasmopara viticola (setting [4]) is given as 0* %. Further, the “Test F disease control rating” value with Phytophthora infestans (setting [4]) is listed as 0* %. In addition, in the assay with Septoria tritici, the “Test J disease control rating” value was 100* %. In addition, the “Test I disease control rating” value in the assay on fusarium graminearium (setting [4]) was 0* %. Further, the “Test K disease control rating” value in assay [1] is on record as 100* %. In addition, in the assay with Botrytis cinerea, the “Test E disease control rating” value was 100* %. Besides, the “Test H disease control rating” value with Septoria nodorum is 99* %. Further, the “Test L disease control rating” value in [2] is 76* %. Moreover, the “Test A disease control rating” value with Pythium aphanidermatum (40 ppm (marked *)) is recorded as 0* %. In addition, in the assay with Rhizoctonia oryzae (setting [4]), the “Test G disease control rating” value is 16* %. Further, the “Test B disease control rating” value in [3] is given as 78* %.

For the origin of these results see patent publication US20080194585A1, “Fungicidal Pyrazine Derivatives” (priority 2005, published 2008).
